# Reference: patent US20220193240A1, “TRIGGERABLE HYDROGEL COMPOSITIONS AND RELATED METHODS” (Massachusetts Institute of Technology, priority 2016, published 2022)
# Columns and labels:
# [1] = In vivo pharmacokinetics of lumefantrine with model fit; design: species or system Yorkshire pig
# Description: In vivo studies. All animal experiments were performed in accordance with protocols approved by the Committee on Animal Care at MIT. A large animal model, 45-55 kg Yorkshire pigs, was chosen as its gastric anatomy similar to humans and is widely used in evaluating devices in the GI space. Pigs were sedated with Telazol (tiletamine/zolazepam) 5 mg kg−1, xylazine 2 mg kg−1, and atropine 0.05 mg kg−1, and/or isoflurane (1˜3% inhaled), and an endoscopic overtube (US Endoscopy) was placed in the esophagus under endoscopic visual guidance during esophageal intubation. To evaluate the TTH for its ability to be triggered to dissolve into solution with biocompatible agents, the retrievable TTH strips and methyl blue-labeled large TTH sheets were administered via the overtube into the stomach. PBS (0.5 L) containing EDTA (40 mM), GSH (20 mM), and NaHCO3 (60 mM) was administered via the overtube after the gastric placement of the TTH samples. Intra-gastric endoscopy videography was used for image capture of the dissolution of the TTH sheets. The TTH strips were retrieved endoscopically after 1 h in the gastric cavity. Pigs that were not administered EDTA/GSH and therefore the strips and sheets were only exposed to gastric fluid were used as control experiments. To assess TTHs for the ability to achieve gastric retention, radiopaque barium sulfate-labeled capsule-like TTHs were administered via the overtube into the gastric cavity (one TTH device per pig). Radiographs were performed every 48-72 h to monitor the integrity and transit of the devices as well as any radiographic evidence of bowel obstruction or perforation. […] During the evaluation of the TTH systems for gastric residence and drug delivery the animals were monitored twice daily for any signs of abnormal feeding and stooling patterns. Additionally the animals were monitored clinically for any evidence of gastrointestinal obstruction as well as radiographically every 48-72 hours for evidence of obstruction and/or perforation. […]
# [2] = pH 7.4
# Description: Permeability measurement. The measurement of permeability of TTHs was carried out on a Franz diffusion cell using a TTH membrane (thickness, 3 mm). […] At each time point, 0.4 mL was sampled from the acceptor compartment and 0.4 mL fresh PBS was supplemented through the sampling port of the cell.
Structure (SMILES),clearance from blood ([1]; after a single administration),absorption rate constant ([1]; first order model fit) [day⁻¹],"elimination rate constant ([1]; free drug, model fit, estimated) [day⁻¹]",permeability through the TTH [2] [mL h·cm−2]
"CCCCN(CCCC)CC(O)c1cc(Cl)cc2c1-c1ccc(Cl)cc1/C2=C/c1ccc(Cl)cc1 (stereo not shown) [free lumefantrine, lumefantrine]",rapidly cleared from blood,1.17,1.17,–
C[S+](C)[O-] [dimethyl sulfoxide],–,–,–,0.082
